# Tested on: Colo205 tumors
# Experiment: s.c. Colo205 xenograft with PBMCs
# Type: in vivo, mice
# Method: In vivo tumor therapy. For subcutaneous (s.c.) tumor models, LS174T, Colo205 or SNU16 cells were combined with fresh PBMCs at a 1:1 ratio, mixed with […]® (volume of cell:gel=1:2), and implanted (100 μl/mouse) at the flank of Balb/c Rag2^−/−IL2Rγ^−/− (DKO) mice (now commercially available from Taconic as CIEA BRG mice). Treatment started after confirmation of tumor presence with a BIW schedule at 100 μg/mouse and continued for 3-4 weeks. Tumor growth was monitored by weekly measurement of tumor volume using a caliper or a digital device Peira TM900 Scanner (Peira Scientific Instruments, Turnhout, Belgium).
# HuA33-BsAb cured MSS tumor COLO205 in a s.c. xenograft model and suppressed tumor growth of metastatic MSS tumor SW1222. Two MSS colon cancer cell lines Colo205 and SW1222 were tested. For Colo205 cells, tumors were implanted subcutaneously with PBMCs as effector cells.
substance,measurement,setting,value
"huA33-BsAb: huA33 IgG with humanized OKT3 scFv fused to light chain C-terminus, N297A and K322A; SEQ ID NO: 19 and 21",tumor response,4 doses,completely eradicate Colo205 tumors
same,time mice remained tumor free,after a total of 6 doses,at least 4 months
